Earlier results on three compounds are cited in patent US9731015B2, “Water-soluble lipophilic natural compound formulations” (priority 2012, dated 2017).

The conditions of data set [1]: background statement.
The conditions of data set [2]: humans, up to 4 g.
For data set [3] the following is noted: animal pharmacokinetic studies.

In the case of `COC1=C(OC)C(=O)C(C/C=C(\C)CC/C=C(\C)CC/C=C(\C)CC/C=C(\C)CC/C=C(\C)CC/C=C(\C)CC/C=C(\C)CC/C=C(\C)CC/C=C(\C)CCC=C(C)C)=C(C)C1=O` [Co-enzyme Q-10, ubidecarenone], the solubility in water entry in data set [1] is given as “insoluble in water”.
`O=c1c(O)c(-c2ccc(O)c(O)c2)oc2cc(O)cc(O)c12` [quercetin]: in data set [2], the “quercetin in plasma after oral administration” value is “No quercetin could be found in plasma”.
Regarding `Oc1ccc(C=Cc2cc(O)cc(O)c2)cc1` [resveratrol, 3,5,4′-trihydroxystilbene], the “bioavailability of oral doses” value in data set [3] is on record as “very low bioavailability”. Besides, in data set [1], the solubility in water result is listed as “virtually insoluble in water”.
